Measurements taken from patent US20050106592A1, “Method for identifying a pharmacologically active substance” (priority 2002, published 2005).

Key:
[1] = biological target: T1, ACE from pig kidney (EC 3.4.15.1) (Sus scrofa, UniProt F1RRW5); type: biochemical; details: relative to Captopril
T1 construct: angiotensin-converting-enzyme derived from pig kidney; purchased Sigma; host or cells: pig kidney (tissue-derived enzyme)
T1 sequence (F1RRW5 34-1309): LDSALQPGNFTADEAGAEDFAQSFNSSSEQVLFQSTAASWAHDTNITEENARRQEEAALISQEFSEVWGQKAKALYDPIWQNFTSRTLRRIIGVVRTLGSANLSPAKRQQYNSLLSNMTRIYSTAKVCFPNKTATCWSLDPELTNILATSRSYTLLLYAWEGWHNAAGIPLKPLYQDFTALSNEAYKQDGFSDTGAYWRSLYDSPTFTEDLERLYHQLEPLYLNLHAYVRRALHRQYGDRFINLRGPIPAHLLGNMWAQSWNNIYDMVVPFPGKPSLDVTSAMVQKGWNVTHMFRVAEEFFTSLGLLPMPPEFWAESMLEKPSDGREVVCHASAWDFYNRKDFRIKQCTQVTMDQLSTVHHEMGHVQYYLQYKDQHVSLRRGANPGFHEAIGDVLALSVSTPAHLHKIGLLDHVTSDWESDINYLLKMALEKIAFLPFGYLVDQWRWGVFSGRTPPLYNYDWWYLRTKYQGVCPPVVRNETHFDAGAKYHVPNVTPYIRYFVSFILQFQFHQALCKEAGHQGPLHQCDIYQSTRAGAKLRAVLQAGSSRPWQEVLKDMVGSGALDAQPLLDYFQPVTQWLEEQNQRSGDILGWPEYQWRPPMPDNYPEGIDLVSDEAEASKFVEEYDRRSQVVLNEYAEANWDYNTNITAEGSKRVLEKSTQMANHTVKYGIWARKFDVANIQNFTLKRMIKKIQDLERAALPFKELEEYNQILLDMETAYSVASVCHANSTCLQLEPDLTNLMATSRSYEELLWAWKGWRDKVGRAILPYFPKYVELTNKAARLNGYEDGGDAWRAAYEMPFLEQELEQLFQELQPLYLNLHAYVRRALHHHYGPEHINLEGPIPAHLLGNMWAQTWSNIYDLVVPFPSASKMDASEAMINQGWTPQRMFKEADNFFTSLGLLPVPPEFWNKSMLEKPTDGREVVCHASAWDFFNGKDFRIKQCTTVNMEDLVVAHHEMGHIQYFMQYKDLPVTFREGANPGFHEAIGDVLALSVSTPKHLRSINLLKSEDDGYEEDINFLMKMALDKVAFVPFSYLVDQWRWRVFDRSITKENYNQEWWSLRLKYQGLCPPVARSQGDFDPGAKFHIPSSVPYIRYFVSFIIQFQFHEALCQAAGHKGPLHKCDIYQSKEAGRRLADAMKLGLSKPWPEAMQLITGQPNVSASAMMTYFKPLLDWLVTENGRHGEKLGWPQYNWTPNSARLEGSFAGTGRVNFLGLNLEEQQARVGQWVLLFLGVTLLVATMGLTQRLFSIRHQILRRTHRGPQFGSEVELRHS
Description: These peptides were investigated for their inhibitory effect using an in vitro-ACE-inhibitor-assay with an angiotensin-converting-enzyme derived from pig kidney. Hippuryl-histidyl-leucin was used as a substrate.
The assay was performed in 96 well HTRF-plates (Packard). The concentrations used for each well were: 1 mU ACE from pig kidney (EC 3.4.15.1 (Sigma)) in 30 μl of assay buffer (25 mM HEPES; 0,3 M NaCl, pH 8.2) and 20 μl inhibitor dissolved in assay buffer (0.35-200 μM). The reaction was started by adding 50 μl of 2 mM hippuryl-histidyl-leucin (Sigma) in assay buffer. The reaction was performed at room temperature (22° C.) for 30 minutes and terminated by adding 50 μl 1 M NaOH. Afterwards 50 μl of 0.5% ortho-phtalaldehyd (Sigma) in methanol were added, 5 minutes later followed by 50 μl of 2.5 M HCl-solution to stabilize the developed fluorescence product.
The results were used to calculate the % inhibition. The IC50-values were determined graphically from a curve showing the dose-reaction ratio.
In order to minimize errors due to time-dependent differences, all pipetting steps were performed in a precise time schedule.

[2] = test system: normotensive Wister rats; test: bradykinin-potentiating effect: blood pressure measurement in anaesthetized normotensive rats; type: in vivo, rat
Description: These experiments were conducted with normotensive rats and the short-time decrease of blood pressure induced by bradykinin (and caused by vasodilatation) was measured. […] Furthermore, S545 (also corresponds to proANP48-57) was also tested in vivo at hypertensive rats (FIG. 7).
In the in vivo experiments with normotensive rats the animals were previously anaesthetized and after blood pressure stabilization treated with a constant amount of bradykinin. Subsequently, either Captopril or human BPP were administered, again followed by a constant amount of bradykinin. Afterwards the maximal blood pressure drop was determined and, on the basis of bradykinin as a factor 1, the potentiating factor was determined. In the same way, the systolic and diastolic blood pressure, the percentage middle pressure decrease and the time required to come back to the baseline values were measured (see tables 4a to 4j). A detailed experimental description is given below.
The trials were conducted on female anaesthetized normotensive Wister rats with weight ranging from 210 to 240 g.
The peptide pANP48-57 used for the in vivo assays was synthesized by Biosynthan (Berlin) with a HPLC-determined purity of 98%. […]
The middle pressure was determined from the measured diastolic (pd) and systolic (ps) blood pressure by using the following formula: pm=(ps−pd)×0.42+pd.

CC(C)C[C@H](NC(=O)[C@H](C)N)C(=O)N[C@@H](CO)C(=O)N1CCC[C@H]1C(=O)N[C@@H](CC(C)C)C(=O)N1CCC[C@H]1C(=O)N[C@@H](CCC(=O)O)C(=O)N[C@H](C(=O)N1CCC[C@H]1C(=O)N1CCC[C@H]1C(=O)O)C(C)C [Peptide S545]
dose necessary in the ACE-assay to reach the same effect as with Captopril [1]: 1000 fold
molecular concentration required for the bradykinin-potentiating effect in vivo in comparison to Captopril ([2]; in vivo, relative to Captopril): 10 fold
bradykinin-potentiating effect (short-time decrease of blood pressure induced by bradykinin) ([2]; normotensive rats, anaesthetized, i.v.): concentration dependent bradykinin-potentiating
